According to patent publication US6703362B1, “Random peptides that bind to gastro-intestinal tract (GIT) transport receptors and related methods” (Cytogen Corporation, priority 1997, dated 2004):
Peptide text beside a SMILES is read from it. * marks the point of attachment. Dansyl = CN(C)c1cccc2c(S(=O)(=O)*)cccc12

Test system: P100 membrane fractions derived from Caco-2 cells
Experiment: Dansylated peptide ELISA: relative binding of PAX2 and HAX42 peptides to P100 (ratio to ZElan021)
Settings: PAX2 peptides, ratio to ZElan021 = 1.00
Procedure: The peptides and proteins were analyzed by a dansylated peptide ELISA method in which 96 well plates were coated overnight at 4° C. with 100 μl/well coating protein (normally 100 μg/ml P100 membrane fraction) in 0.05M carbonate buffer pH9.6. Nonspecific binding was blocked using 200 μl/well, 2% Marvel/PBS for 2 hours at 37° C. prior to incubation with dansylated peptides. The plates were washed three times with PBS/0.05% Tween 20 and after each subsequent incubation step. […] A buffer blank control was included to ensure that background binding to plastic was not due to the antibodies used in the assay system. […] The plates were then incubated with an anti-mouse X-HRP conjugated antibody (Southern Biotech 1060-05) at a 1:10,000 dilution in blocking solution, 100 μl/well for 1 hour at room temperature. Plates were developed using 75 μl/well Bionostics TMB substrate and incubated for approximately 10 minutes. The developing reaction was stopped using Bionostics Red Stop solution (25 μl/well), and the optical density of the plates was read at 650nm.

Compound	Binding value at 50 μg/ml (Jackson Ab)	Binding value at 50 μg/ml (Southern Ab)	Binding value at 20 μg/ml (first 20 μg/ml column)	Binding value at 50 μg/ml (first 50 μg/ml column)	Binding value at 50 μg/ml (second 50 μg/ml column)	Binding value at 20 μg/ml (second 20 μg/ml column)
CC(C)C[C@H](NC(=O)[C@H](C)NC(=O)[C@H](CCCNC(=N)N)NC(=O)[C@H](CC(N)=O)NC(=O)[C@H](Cc1c[nH]cn1)NC(=O)[C@H](CO)NC(=O)[C@H](CO)NC(=O)[C@@H](N)CCCCNS(=O)(=O)c1cccc2c(N(C)C)cccc12)C(=O)N[C@@H](CCCNC(=N)N)C(=O)N[C@H](C(=O)N[C@@H](CCCNC(=N)N)C(N)=O)[C@@H](C)O [ZElan078] (H-K(Dansyl)SSHNRALRTR-NH2)	0.68	0.47	0.11	0.87	0.69	–
CC(C)C[C@H](NC(=O)[C@H](CCCNC(=N)N)NC(=O)[C@H](CCCNC(=N)N)NC(=O)[C@H](CC(N)=O)NC(=O)[C@H](Cc1c[nH]cn1)NC(=O)[C@H](CO)NC(=O)[C@H](CO)NC(=O)[C@@H](N)CCCCNS(=O)(=O)c1cccc2c(N(C)C)cccc12)C(=O)N[C@@H](C)C(=O)N[C@H](C(=O)N[C@@H](CCCNC(=N)N)C(N)=O)[C@@H](C)O [ZElan080] (H-K(Dansyl)SSHNRRLATR-NH2)	0.67	0.38	0.23	0.84	0.45	–
C[C@H](NC(=O)[C@H](CC(N)=O)NC(=O)[C@@H](NC(=O)[C@@H](N)CCCCNS(=O)(=O)c1cccc2c(N(C)C)cccc12)[C@@H](C)O)C(=O)N[C@@H](CCCCN)C(=O)N[C@@H](Cc1c[nH]cn1)C(=O)N[C@@H](CO)C(=O)N[C@@H](CO)C(=O)N[C@@H](Cc1c[nH]cn1)C(=O)N[C@@H](CC(N)=O)C(N)=O [ZElan055] (H-K(Dansyl)TNAKHSSHN-NH2)	–	–	0.99	1.10	0.59	0.73
H-K(Dansyl)GRNHDVVSSNTHKSYRSPRSASYPRLSNDRTDRTEPAPSS-NH2 [ZElan083, reference compound]	–	–	0.43	1.03	0.88	0.63
CC(C)C[C@H](NC(=O)[C@H](CCCNC(=N)N)NC(=O)[C@H](CCCNC(=N)N)NC(=O)[C@H](CC(N)=O)NC(=O)[C@H](Cc1c[nH]cn1)NC(=O)[C@H](C)NC(=O)[C@H](CO)NC(=O)[C@@H](N)CCCCNS(=O)(=O)c1cccc2c(N(C)C)cccc12)C(=O)N[C@@H](CCCNC(=N)N)C(=O)N[C@H](C(=O)N[C@@H](CCCNC(=N)N)C(N)=O)[C@@H](C)O [ZElan074] (H-K(Dansyl)SAHNRRLRTR-NH2)	0.71	0.48	0.06	0.82	0.52	–
